The species entered for one data set is Rattus norvegicus. Conditions: in vivo.
Data set [1] addresses T1, Adrenergic receptor alpha-1 (Rattus norvegicus, UniProt P15823+P23944+P43140).
T1 sequence (P15823 whole entry): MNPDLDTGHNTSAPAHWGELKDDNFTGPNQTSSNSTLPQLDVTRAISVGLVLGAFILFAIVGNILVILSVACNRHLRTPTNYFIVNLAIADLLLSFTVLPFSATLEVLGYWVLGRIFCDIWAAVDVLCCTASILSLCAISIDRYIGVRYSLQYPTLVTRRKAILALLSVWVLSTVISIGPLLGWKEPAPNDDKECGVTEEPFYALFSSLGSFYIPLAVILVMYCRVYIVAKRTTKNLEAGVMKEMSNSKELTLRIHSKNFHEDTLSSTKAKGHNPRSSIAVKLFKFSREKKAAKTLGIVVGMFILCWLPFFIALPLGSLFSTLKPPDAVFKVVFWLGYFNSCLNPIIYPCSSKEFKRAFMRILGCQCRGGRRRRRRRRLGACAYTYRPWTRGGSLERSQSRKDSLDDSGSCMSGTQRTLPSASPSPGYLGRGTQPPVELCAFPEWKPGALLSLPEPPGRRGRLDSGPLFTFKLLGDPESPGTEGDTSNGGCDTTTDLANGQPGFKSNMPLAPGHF
T1 sequence (P23944 whole entry): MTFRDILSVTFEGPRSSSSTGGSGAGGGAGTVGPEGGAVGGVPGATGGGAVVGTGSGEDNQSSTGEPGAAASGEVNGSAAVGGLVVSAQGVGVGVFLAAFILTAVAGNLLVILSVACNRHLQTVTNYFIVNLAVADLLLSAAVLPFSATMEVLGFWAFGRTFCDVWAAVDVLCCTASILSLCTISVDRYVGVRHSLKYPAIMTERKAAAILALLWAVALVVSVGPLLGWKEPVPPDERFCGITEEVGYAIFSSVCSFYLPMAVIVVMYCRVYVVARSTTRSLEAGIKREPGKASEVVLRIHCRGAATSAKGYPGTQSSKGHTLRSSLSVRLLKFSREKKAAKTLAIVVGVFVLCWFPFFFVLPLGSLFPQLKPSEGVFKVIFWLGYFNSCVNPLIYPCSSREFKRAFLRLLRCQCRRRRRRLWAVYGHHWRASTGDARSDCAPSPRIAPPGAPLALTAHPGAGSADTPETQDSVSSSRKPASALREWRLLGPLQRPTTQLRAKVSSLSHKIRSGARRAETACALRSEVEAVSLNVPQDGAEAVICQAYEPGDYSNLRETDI
T1 sequence (P43140 whole entry): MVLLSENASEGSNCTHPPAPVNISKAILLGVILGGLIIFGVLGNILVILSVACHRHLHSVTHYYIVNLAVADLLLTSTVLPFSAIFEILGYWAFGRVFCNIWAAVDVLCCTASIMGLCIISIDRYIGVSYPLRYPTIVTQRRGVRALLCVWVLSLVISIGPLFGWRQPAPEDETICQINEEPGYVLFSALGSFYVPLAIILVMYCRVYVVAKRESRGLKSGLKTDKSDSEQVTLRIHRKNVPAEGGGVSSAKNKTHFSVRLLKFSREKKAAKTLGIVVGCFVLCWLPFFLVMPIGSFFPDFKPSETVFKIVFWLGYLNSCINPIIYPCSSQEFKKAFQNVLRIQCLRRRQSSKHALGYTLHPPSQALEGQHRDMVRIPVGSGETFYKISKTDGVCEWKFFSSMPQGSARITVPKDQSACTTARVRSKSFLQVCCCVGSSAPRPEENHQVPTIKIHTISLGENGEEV
In kind it is tissue-based, Frontal cortex.
Description: Inhibition of [3H]-prazosin binding to Alpha-1 adrenergic receptor in rat frontal cortex homogenate

The target in data set [2] is T2, Muscarinic acetylcholine receptor M1 (Rattus norvegicus, UniProt P08482).
T2 sequence (P08482 whole entry): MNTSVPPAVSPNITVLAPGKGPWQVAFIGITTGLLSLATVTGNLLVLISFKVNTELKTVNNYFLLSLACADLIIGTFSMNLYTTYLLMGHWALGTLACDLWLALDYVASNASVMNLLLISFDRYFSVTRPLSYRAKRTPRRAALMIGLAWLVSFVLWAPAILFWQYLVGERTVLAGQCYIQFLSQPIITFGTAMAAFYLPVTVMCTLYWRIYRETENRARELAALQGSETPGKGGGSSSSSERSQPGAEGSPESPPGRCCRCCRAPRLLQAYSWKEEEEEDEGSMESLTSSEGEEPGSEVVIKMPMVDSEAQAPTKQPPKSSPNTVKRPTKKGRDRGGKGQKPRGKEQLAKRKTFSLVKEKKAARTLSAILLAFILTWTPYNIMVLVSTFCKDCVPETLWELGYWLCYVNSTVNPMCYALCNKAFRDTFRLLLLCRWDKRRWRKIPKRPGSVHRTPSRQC
Nature of the data set: biochemical. In kind it is tissue-based, Frontal cortex.
Description: Half-maximal inhibition of [3H]QNB binding to Muscarinic acetylcholine receptor M1 in rat frontal cortex homogenate

Description for Rattus norvegicus: Area under curve (AUC) value of DOPAC level after total treatment in dialysates collected from rat striatum.

Take `CN1CCN([C@@H]2Cn3cccc3Sc3ccc(Cl)cc32)CC1`: in the data set filed under Rattus norvegicus, the AUC came out at 174.4. In addition, the Ki – broadly, a measure of affinity in units of concentration, obtained from inhibition or displacement – in data set [1] was 0.82 nM; in data set [2] it was 287 nM.

(Values after ChEMBL document CHEMBL1135802, “Pyrrolo[1,3]benzothiazepine-based atypical antipsychotic agents. Synthesis, structure-activity relationship, molecular modeling, and biological studies” (J Med Chem, 2002).)
